Source: ChEMBL document CHEMBL1124865, “Synthesis and biological evaluation of a series of parenteral 3'-quaternary ammonium cephalosporins” (J Med Chem, 1990)
Values after ≈ are worked out from the molar mass of the structure shown.

Experiments:
Assay type in all cases: functional
Streptococcus pyogenes = test: Antibacterial activity against Streptococcus pyogenes; conditions: Streptococcus pyogenes; read-out: MIC
Pseudomonas aeruginosa [1] = test: Antibacterial activity against Pseudomonas aeruginosa X528
Escherichia coli [2] = test: Antibacterial activity against Escherichia coli TEM; conditions: Escherichia coli; read-out: MIC
Pseudomonas aeruginosa [3] = test: Antibacterial activity against Pseudomonas aeruginosa PS18; conditions: Pseudomonas aeruginosa; read-out: MIC
Enterobacter cloacae [4] = test: Antibacterial activity against Enterobacter cloacae 265A; conditions: Enterobacter cloacae; read-out: MIC
Streptococcus pneumoniae = test: Antibacterial activity against Streptococcus pneumoniae; conditions: Streptococcus pneumoniae; read-out: MIC
Klebsiella pneumoniae [5] = test: microbe, parasite or virus in culture; conditions: Klebsiella pneumoniae; read-out: MIC
Description: Antibacterial activity against Klebsiella pneumoniae 1082E

Enterococcus faecium = test: Antibacterial activity against Enterococcus faecium; conditions: Enterococcus faecium; read-out: MIC
Staphylococcus aureus [6] = test: Antibacterial activity against penicillin G resistance Staphylococcus aureus; conditions: Staphylococcus aureus; read-out: MIC
Klebsiella pneumoniae [7] = test: Antibacterial activity against Klebsiella pneumoniae X26; conditions: Klebsiella pneumoniae; read-out: MIC
Staphylococcus aureus [8] = test: Antibacterial activity against penicillin G susceptible Staphylococcus aureus; conditions: Staphylococcus aureus; read-out: MIC
Escherichia coli [9] = test: Antibacterial activity against Escherichia coli EC14; conditions: Escherichia coli; read-out: MIC
Enterobacter cloacae [10] = test: Antibacterial activity against Enterobacter cloacae EB5; conditions: Enterobacter cloacae; read-out: MIC
Serratia marcescens = test: Antibacterial activity against Serratia marcescens SE3; conditions: Serratia marcescens; read-out: MIC
[11] = Pseudomonas aeruginosa, read-out: MIC

| SMILES | MIC (Streptococcus pyogenes) [µg/mL] | MIC (Pseudomonas aeruginosa [1]; [11]) [µg/mL] | MIC (Escherichia coli [2]) [µg/mL] | MIC (Pseudomonas aeruginosa [3]) [µg/mL] | MIC (Enterobacter cloacae [4]) [µg/mL] | MIC (Streptococcus pneumoniae) [µg/mL] | MIC (Klebsiella pneumoniae [5]) [µg/mL] | MIC (Enterococcus faecium) [µg/mL] | MIC (Staphylococcus aureus [6]) [µg/mL] | MIC (Klebsiella pneumoniae [7]) [µg/mL] | MIC (Staphylococcus aureus [8]) [µg/mL] | MIC (Escherichia coli [9]) [µg/mL] | MIC (Enterobacter cloacae [10]) [µg/mL] | MIC (Serratia marcescens) [µg/mL] | MIC (Pseudomonas aeruginosa [1]) [µg/mL] |
| --- | --- | --- | --- | --- | --- | --- | --- | --- | --- | --- | --- | --- | --- | --- | --- |
| CO/N=C(\C(=O)N[C@@H]1C(=O)N2C(C(=O)[O-])=C(C[n+]3cc(C)c4ccccc4c3)CS[C@H]12)c1csc(N)n1 | < 0.008 | 4 (≈ 7.43 µM) | 0.03 (≈ 0.0557 µM) | 16 (≈ 29.7 µM) | 2 (≈ 3.71 µM) | < 0.008 | 8 (≈ 14.9 µM) | > 128 | 2 (≈ 3.71 µM) | 0.015 (≈ 0.0278 µM) | 1 (≈ 1.86 µM) | 0.06 (≈ 0.111 µM) | 0.25 (≈ 0.464 µM) | 0.25 (≈ 0.464 µM) |  |
| C=Cc1sc[n+](CC2=C(C(=O)[O-])N3C(=O)[C@@H](NC(=O)/C(=N\OC)c4csc(N)n4)[C@H]3SC2)c1C | 0.03 (≈ 0.0576 µM) | 16 (≈ 30.7 µM) | 0.03 (≈ 0.0576 µM) | 32 (≈ 61.5 µM) | 4 (≈ 7.68 µM) | 0.06 (≈ 0.115 µM) | 4 (≈ 7.68 µM) | 32 (≈ 61.5 µM) | 4 (≈ 7.68 µM) | 0.06 (≈ 0.115 µM) | 2 (≈ 3.84 µM) | 0.06 (≈ 0.115 µM) | 0.25 (≈ 0.48 µM) | 0.25 (≈ 0.48 µM) |  |
| CO/N=C(\C(=O)N[C@@H]1C(=O)N2C(C(=O)[O-])=C(C[n+]3csc4c3CCC4)CS[C@H]12)c1csc(N)n1 | 0.06 (≈ 0.115 µM) | 8 (≈ 15.4 µM) | 0.06 (≈ 0.115 µM) | 32 (≈ 61.5 µM) | 4 (≈ 7.68 µM) | 0.06 (≈ 0.115 µM) | 4 (≈ 7.68 µM) | 32 (≈ 61.5 µM) | 4 (≈ 7.68 µM) | 0.06 (≈ 0.115 µM) | 2 (≈ 3.84 µM) | 0.06 (≈ 0.115 µM) | 0.25 (≈ 0.48 µM) | 0.125 (≈ 0.24 µM) |  |
| CO/N=C(\C(=O)N[C@@H]1C(=O)N2C(C(=O)[O-])=C(C[n+]3ccc4sc(N)cc4c3)CS[C@H]12)c1csc(N)n1 | 0.015 (≈ 0.0275 µM) | 1 (≈ 1.83 µM) | 0.03 (≈ 0.055 µM) | 4 (≈ 7.33 µM) | 8 (≈ 14.7 µM) | < 0.008 | 2 (≈ 3.67 µM) | > 128 | 4 (≈ 7.33 µM) | < 0.008 | 0.5 (≈ 0.916 µM) | 0.015 (≈ 0.0275 µM) | 0.06 (≈ 0.11 µM) | 0.06 (≈ 0.11 µM) |  |
| CO/N=C(\C(=O)N[C@@H]1C(=O)N2C(C(=O)[O-])=C(C[n+]3ccc(Cl)cc3)CS[C@H]12)c1csc(N)n1 | 0.015 (≈ 0.0295 µM) | 4 (≈ 7.86 µM) | 0.03 (≈ 0.0589 µM) | 16 (≈ 31.4 µM) | 32 (≈ 62.9 µM) | 0.03 (≈ 0.0589 µM) | 16 (≈ 31.4 µM) | > 128 | 4 (≈ 7.86 µM) | 0.03 (≈ 0.0589 µM) | 2 (≈ 3.93 µM) | 0.06 (≈ 0.118 µM) | 0.25 (≈ 0.491 µM) | 0.25 (≈ 0.491 µM) |  |
| CO/N=C(\C(=O)N[C@@H]1C(=O)N2C(C(=O)[O-])=C(C[n+]3ccc4[nH]c(-c5ccccc5)nc4c3)CS[C@H]12)c1csc(N)n1 | 0.008 (≈ 0.0135 µM) |  |  | 128 (≈ 217 µM) |  | 0.008 (≈ 0.0135 µM) | 2 (≈ 3.39 µM) | 128 (≈ 217 µM) | 8 (≈ 13.5 µM) | 0.015 (≈ 0.0254 µM) | 2 (≈ 3.39 µM) |  | 0.5 (≈ 0.847 µM) | 1 (≈ 1.69 µM) |  |
| CO/N=C(\C(=O)N[C@@H]1C(=O)N2C(C(=O)[O-])=C(C[n+]3ccc4[nH]c(C)nc4c3)CS[C@H]12)c1csc(N)n1 | 0.008 (≈ 0.0151 µM) | 2 (≈ 3.78 µM) | 0.008 (≈ 0.0151 µM) | 8 (≈ 15.1 µM) | 8 (≈ 15.1 µM) | 0.008 (≈ 0.0151 µM) | 2 (≈ 3.78 µM) | 128 (≈ 242 µM) | 8 (≈ 15.1 µM) | 0.008 (≈ 0.0151 µM) | 2 (≈ 3.78 µM) | 0.008 (≈ 0.0151 µM) |  |  |  |
| CO/N=C(\C(=O)N[C@@H]1C(=O)N2C(C(=O)[O-])=C(C[n+]3ccc4scnc4c3)CS[C@H]12)c1csc(N)n1 | 0.015 (≈ 0.0282 µM) | 1 (≈ 1.88 µM) |  | 4 (≈ 7.52 µM) | 8 (≈ 15 µM) | 0.015 (≈ 0.0282 µM) | 4 (≈ 7.52 µM) |  | 8 (≈ 15 µM) | 0.015 (≈ 0.0282 µM) | 1 (≈ 1.88 µM) | 0.015 (≈ 0.0282 µM) |  |  |  |
| CO/N=C(\C(=O)N[C@@H]1C(=O)N2C(C(=O)[O-])=C(C[n+]3csc(CCOC=O)c3C)CS[C@H]12)c1csc(N)n1 | 0.015 (≈ 0.0265 µM) | 8 (≈ 14.1 µM) | 0.03 (≈ 0.0529 µM) | 16 (≈ 28.2 µM) | 2 (≈ 3.53 µM) | 0.015 (≈ 0.0265 µM) | 4 (≈ 7.06 µM) | 16 (≈ 28.2 µM) | 2 (≈ 3.53 µM) | 0.015 (≈ 0.0265 µM) | 1 (≈ 1.76 µM) | 0.03 (≈ 0.0529 µM) | 0.06 (≈ 0.106 µM) | 0.06 (≈ 0.106 µM) |  |
| CO/N=C(\C(=O)N[C@@H]1C(=O)N2C(C(=O)[O-])=C(C[n+]3ccc4nc(C(C)(C)C)sc4c3)CS[C@H]12)c1csc(N)n1 | 0.015 (≈ 0.0255 µM) |  |  | 128 (≈ 218 µM) | 16 (≈ 27.2 µM) | 0.015 (≈ 0.0255 µM) | 4 (≈ 6.81 µM) | 128 (≈ 218 µM) | 4 (≈ 6.81 µM) |  | 1 (≈ 1.7 µM) |  | 1 (≈ 1.7 µM) | 2 (≈ 3.4 µM) |  |
| CO/N=C(\C(=O)N[C@@H]1C(=O)N2C(C(=O)[O-])=C(C[n+]3cccc4ccoc43)CS[C@H]12)c1csc(N)n1 | < 0.008 | 4 (≈ 7.77 µM) | 0.06 (≈ 0.117 µM) | 16 (≈ 31.1 µM) | 8 (≈ 15.5 µM) | < 0.008 | 4 (≈ 7.77 µM) | > 128 | 16 (≈ 31.1 µM) | < 0.008 | 2 (≈ 3.89 µM) | < 0.008 | 0.125 (≈ 0.243 µM) | 0.125 (≈ 0.243 µM) |  |
| CO/N=C(\C(=O)N[C@@H]1C(=O)N2C(C(=O)[O-])=C(C[n+]3ccc4oc(C)nc4c3)CS[C@H]12)c1csc(N)n1 | 0.015 (≈ 0.0283 µM) | 4 (≈ 7.55 µM) |  | 8 (≈ 15.1 µM) | 8 (≈ 15.1 µM) | 0.015 (≈ 0.0283 µM) | 4 (≈ 7.55 µM) | 128 (≈ 242 µM) | 8 (≈ 15.1 µM) | 0.015 (≈ 0.0283 µM) | 1 (≈ 1.89 µM) |  |  |  |  |
| CCC(C)Nc1nc2cc[n+](CC3=C(C(=O)[O-])N4C(=O)[C@@H](NC(=O)/C(=N\OC)c5csc(N)n5)[C@H]4SC3)cc2s1 (some centres undefined) | 0.008 (≈ 0.0133 µM) | 16 (≈ 26.5 µM) | 0.015 (≈ 0.0249 µM) | 128 (≈ 212 µM) | 2 (≈ 3.32 µM) | 0.008 (≈ 0.0133 µM) | 2 (≈ 3.32 µM) | 128 (≈ 212 µM) | 0.5 (≈ 0.83 µM) | 0.008 (≈ 0.0133 µM) | 0.5 (≈ 0.83 µM) | 0.06 (≈ 0.0995 µM) | 0.25 (≈ 0.415 µM) | 0.5 (≈ 0.83 µM) |  |
| CO/N=C(\C(=O)N[C@@H]1C(=O)N2C(C(=O)[O-])=C(C[n+]3ccc4[nH]cnc4c3)CS[C@H]12)c1csc(N)n1 | 0.008 (≈ 0.0155 µM) | 2 (≈ 3.89 µM) | 0.008 (≈ 0.0155 µM) | 8 (≈ 15.5 µM) | 8 (≈ 15.5 µM) | 0.008 (≈ 0.0155 µM) | 8 (≈ 15.5 µM) |  | 2 (≈ 3.89 µM) | 0.008 (≈ 0.0155 µM) | 2 (≈ 3.89 µM) | 0.008 (≈ 0.0155 µM) |  | 0.125 (≈ 0.243 µM) |  |
| CO/N=C(\C(=O)N[C@@H]1C(=O)N2C(C(=O)[O-])=C(C[n+]3ccc4[nH]c(-c5cccs5)nc4c3)CS[C@H]12)c1csc(N)n1 | 0.008 (≈ 0.0134 µM) |  |  | 128 (≈ 215 µM) |  | 0.008 (≈ 0.0134 µM) | 4 (≈ 6.7 µM) | 128 (≈ 215 µM) | 8 (≈ 13.4 µM) | 0.015 (≈ 0.0251 µM) | 2 (≈ 3.35 µM) |  | 0.5 (≈ 0.838 µM) | 1 (≈ 1.68 µM) |  |
| CO/N=C(\C(=O)N[C@@H]1C(=O)N2C(C(=O)[O-])=C(C[n+]3ccc(CC(=O)NO)cc3)CS[C@H]12)c1csc(N)n1 (stereo in doubt; 19) |  |  |  |  |  |  |  |  |  |  |  |  |  |  | 2 (≈ 3.65 µM) |
| CCc1nc2c[n+](CC3=C(C(=O)[O-])N4C(=O)[C@@H](NC(=O)/C(=N\OC)c5csc(N)n5)[C@H]4SC3)ccc2s1 | 0.008 (≈ 0.0143 µM) | 4 (≈ 7.15 µM) | 0.015 (≈ 0.0268 µM) | 16 (≈ 28.6 µM) | 4 (≈ 7.15 µM) | 0.008 (≈ 0.0143 µM) | 2 (≈ 3.57 µM) | 128 (≈ 229 µM) | 4 (≈ 7.15 µM) | 0.008 (≈ 0.0143 µM) | 1 (≈ 1.79 µM) | 0.015 (≈ 0.0268 µM) |  |  |  |
